{"source": "patent US8680012B2", "about": "“4-phenyl-pyrane-3,5-diones,4-phenyl-thiopyrane-3,6-diones and cyclohexanetriones as novel herbicides” (Syngenta Crop Protection LLC, priority 2006, dated 2014)"}
{"test_system": "Solanum nigrum (SOLNI)", "experiment": "Example B pre-emergence herbicidal activity, glasshouse pot test", "format": "in vivo", "conditions": "312 h, rate 1000 g/ha, evaluated after 13 days, read-out: Pre-emergence activity SOLNI (100=total damage to plant; 0=no damage to plant)", "how_it_was_run": "(§1)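 Damage rating, 0–100, at 13 d after application. Spray solution: a.i. in acetone/water (50:50), 0.5% Tween 20. Applied 1 d after sowing or at 8 d growth; pots held at 24/16 °C, 14 h light, 65% humidity.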", "units": {"pest or weed control at 1000 g/ha": "%"}}
{"smiles": "CCc1ccc(-c2ccc(Cl)cc2)cc1C1=C(OC(C)=O)C(C)(C)OC(C)(C)C1=O", "note": "[Compound D-7]", "pest or weed control at 1000 g/ha": 0}
{"smiles": "CCC(=O)OC1=C(c2cc(-c3ccc(Cl)cc3)ccc2CC)C(=O)C(C)(C)OC1(C)C", "note": "[Compound D-8]", "pest or weed control at 1000 g/ha": 0}
{"smiles": "CCc1ccc(-c2ccc(Cl)cc2)cc1C1=C(OC(=O)C(C)C)C(C)(C)OC(C)(C)C1=O", "note": "[Compound D-9]", "pest or weed control at 1000 g/ha": 0}
{"test_system": "Amaranthus retroflexus (AMARE)", "experiment": "Example B pre-emergence herbicidal activity, glasshouse pot test", "format": "in vivo", "conditions": "312 h, rate 1000 g/ha, evaluated after 13 days, read-out: Pre-emergence activity AMARE (100=total damage to plant; 0=no damage to plant)", "how_it_was_run": "as §1", "units": {"pest or weed control at 1000 g/ha": "%"}}
{"smiles": "CCc1ccc(-c2ccc(Cl)cc2)cc1C1=C(OC(C)=O)C(C)(C)OC(C)(C)C1=O", "note": "[Compound D-7]", "pest or weed control at 1000 g/ha": 0}
{"smiles": "CCC(=O)OC1=C(c2cc(-c3ccc(Cl)cc3)ccc2CC)C(=O)C(C)(C)OC1(C)C", "note": "[Compound D-8]", "pest or weed control at 1000 g/ha": 0}
{"smiles": "CCc1ccc(-c2ccc(Cl)cc2)cc1C1=C(OC(=O)C(C)C)C(C)(C)OC(C)(C)C1=O", "note": "[Compound D-9]", "pest or weed control at 1000 g/ha": 0}
{"test_system": "Alopecurus myosuroides (ALOMY)", "experiment": "Example B pre-emergence herbicidal activity, glasshouse pot test", "format": "in vivo", "conditions": "312 h, rate 1000 g/ha, evaluated after 13 days, read-out: Pre-emergence activity ALOMY (100=total damage to plant; 0=no damage to plant)", "how_it_was_run": "as §1", "units": {"pest or weed control at 1000 g/ha": "%"}}
{"smiles": "CCc1ccc(-c2ccc(Cl)cc2)cc1C1=C(OC(C)=O)C(C)(C)OC(C)(C)C1=O", "note": "[Compound D-7]", "pest or weed control at 1000 g/ha": 60}
{"smiles": "CCC(=O)OC1=C(c2cc(-c3ccc(Cl)cc3)ccc2CC)C(=O)C(C)(C)OC1(C)C", "note": "[Compound D-8]", "pest or weed control at 1000 g/ha": 40}
{"smiles": "CCc1ccc(-c2ccc(Cl)cc2)cc1C1=C(OC(=O)C(C)C)C(C)(C)OC(C)(C)C1=O", "note": "[Compound D-9]", "pest or weed control at 1000 g/ha": 20}
{"test_system": "Avena fatua (AVEFA)", "experiment": "Example B pre-emergence herbicidal activity, glasshouse pot test", "format": "in vivo", "conditions": "312 h, rate 1000 g/ha, evaluated after 13 days, read-out: Pre-emergence activity AVEFA (100=total damage to plant; 0=no damage to plant)", "how_it_was_run": "as §1", "units": {"pest or weed control at 1000 g/ha": "%"}}
{"smiles": "CCc1ccc(-c2ccc(Cl)cc2)cc1C1=C(OC(C)=O)C(C)(C)OC(C)(C)C1=O", "note": "[Compound D-7]", "pest or weed control at 1000 g/ha": 30}
{"smiles": "CCC(=O)OC1=C(c2cc(-c3ccc(Cl)cc3)ccc2CC)C(=O)C(C)(C)OC1(C)C", "note": "[Compound D-8]", "pest or weed control at 1000 g/ha": 0}
{"smiles": "CCc1ccc(-c2ccc(Cl)cc2)cc1C1=C(OC(=O)C(C)C)C(C)(C)OC(C)(C)C1=O", "note": "[Compound D-9]", "pest or weed control at 1000 g/ha": 0}
{"test_system": "Setaria faberi (SETFA)", "experiment": "Example B pre-emergence herbicidal activity, glasshouse pot test", "format": "in vivo", "conditions": "312 h, rate 1000 g/ha, evaluated after 13 days, read-out: Pre-emergence activity SETFA (100=total damage to plant; 0=no damage to plant)", "how_it_was_run": "as §1", "units": {"pest or weed control at 1000 g/ha": "%"}}
{"smiles": "CCc1ccc(-c2ccc(Cl)cc2)cc1C1=C(OC(C)=O)C(C)(C)OC(C)(C)C1=O", "note": "[Compound D-7]", "pest or weed control at 1000 g/ha": 100}
{"smiles": "CCC(=O)OC1=C(c2cc(-c3ccc(Cl)cc3)ccc2CC)C(=O)C(C)(C)OC1(C)C", "note": "[Compound D-8]", "pest or weed control at 1000 g/ha": 90}
{"smiles": "CCc1ccc(-c2ccc(Cl)cc2)cc1C1=C(OC(=O)C(C)C)C(C)(C)OC(C)(C)C1=O", "note": "[Compound D-9]", "pest or weed control at 1000 g/ha": 90}
{"test_system": "Echinochloa crus-galli (ECHCG)", "experiment": "Example B pre-emergence herbicidal activity, glasshouse pot test", "format": "in vivo", "conditions": "312 h, rate 1000 g/ha, evaluated after 13 days, read-out: Pre-emergence activity ECHCG (100=total damage to plant; 0=no damage to plant)", "how_it_was_run": "as §1", "units": {"pest or weed control at 1000 g/ha": "%"}}
{"smiles": "CCc1ccc(-c2ccc(Cl)cc2)cc1C1=C(OC(C)=O)C(C)(C)OC(C)(C)C1=O", "note": "[Compound D-7]", "pest or weed control at 1000 g/ha": 90}
{"smiles": "CCC(=O)OC1=C(c2cc(-c3ccc(Cl)cc3)ccc2CC)C(=O)C(C)(C)OC1(C)C", "note": "[Compound D-8]", "pest or weed control at 1000 g/ha": 90}
{"smiles": "CCc1ccc(-c2ccc(Cl)cc2)cc1C1=C(OC(=O)C(C)C)C(C)(C)OC(C)(C)C1=O", "note": "[Compound D-9]", "pest or weed control at 1000 g/ha": 70}
{"test_system": "Solanum nigrum (SOLNI)", "experiment": "Example B post-emergence herbicidal activity, glasshouse pot test", "format": "in vivo", "conditions": "312 h, rate 1000 g/ha, evaluated after 13 days, read-out: Post-emergence activity SOLNI (100=total damage to plant; 0=no damage to plant)", "how_it_was_run": "as §1", "units": {"pest or weed control at 1000 g/ha": "%"}}
{"smiles": "CCc1ccc(-c2ccc(Cl)cc2)cc1C1=C(OC(C)=O)C(C)(C)OC(C)(C)C1=O", "note": "[Compound D-7]", "pest or weed control at 1000 g/ha": 0}
{"smiles": "CCC(=O)OC1=C(c2cc(-c3ccc(Cl)cc3)ccc2CC)C(=O)C(C)(C)OC1(C)C", "note": "[Compound D-8]", "pest or weed control at 1000 g/ha": 0}
{"smiles": "CCc1ccc(-c2ccc(Cl)cc2)cc1C1=C(OC(=O)C(C)C)C(C)(C)OC(C)(C)C1=O", "note": "[Compound D-9]", "pest or weed control at 1000 g/ha": 0}
{"test_system": "Amaranthus retroflexus (AMARE)", "experiment": "Example B post-emergence herbicidal activity, glasshouse pot test", "format": "in vivo", "conditions": "312 h, rate 1000 g/ha, evaluated after 13 days, read-out: Post-emergence activity AMARE (100=total damage to plant; 0=no damage to plant)", "how_it_was_run": "as §1", "units": {"pest or weed control at 1000 g/ha": "%"}}
{"smiles": "CCc1ccc(-c2ccc(Cl)cc2)cc1C1=C(OC(C)=O)C(C)(C)OC(C)(C)C1=O", "note": "[Compound D-7]", "pest or weed control at 1000 g/ha": 0}
{"smiles": "CCC(=O)OC1=C(c2cc(-c3ccc(Cl)cc3)ccc2CC)C(=O)C(C)(C)OC1(C)C", "note": "[Compound D-8]", "pest or weed control at 1000 g/ha": 0}
{"smiles": "CCc1ccc(-c2ccc(Cl)cc2)cc1C1=C(OC(=O)C(C)C)C(C)(C)OC(C)(C)C1=O", "note": "[Compound D-9]", "pest or weed control at 1000 g/ha": 0}
{"test_system": "Alopecurus myosuroides (ALOMY)", "experiment": "Example B post-emergence herbicidal activity, glasshouse pot test", "format": "in vivo", "conditions": "312 h, rate 1000 g/ha, evaluated after 13 days, read-out: Post-emergence activity ALOMY (100=total damage to plant; 0=no damage to plant)", "how_it_was_run": "as §1", "units": {"pest or weed control at 1000 g/ha": "%"}}
{"smiles": "CCc1ccc(-c2ccc(Cl)cc2)cc1C1=C(OC(C)=O)C(C)(C)OC(C)(C)C1=O", "note": "[Compound D-7]", "pest or weed control at 1000 g/ha": 90}
{"smiles": "CCC(=O)OC1=C(c2cc(-c3ccc(Cl)cc3)ccc2CC)C(=O)C(C)(C)OC1(C)C", "note": "[Compound D-8]", "pest or weed control at 1000 g/ha": 60}
{"smiles": "CCc1ccc(-c2ccc(Cl)cc2)cc1C1=C(OC(=O)C(C)C)C(C)(C)OC(C)(C)C1=O", "note": "[Compound D-9]", "pest or weed control at 1000 g/ha": 30}
{"test_system": "Avena fatua (AVEFA)", "experiment": "Example B post-emergence herbicidal activity, glasshouse pot test", "format": "in vivo", "conditions": "312 h, rate 1000 g/ha, evaluated after 13 days, read-out: Post-emergence activity AVEFA (100=total damage to plant; 0=no damage to plant)", "how_it_was_run": "as §1", "units": {"pest or weed control at 1000 g/ha": "%"}}
{"smiles": "CCc1ccc(-c2ccc(Cl)cc2)cc1C1=C(OC(C)=O)C(C)(C)OC(C)(C)C1=O", "note": "[Compound D-7]", "pest or weed control at 1000 g/ha": 70}
{"smiles": "CCC(=O)OC1=C(c2cc(-c3ccc(Cl)cc3)ccc2CC)C(=O)C(C)(C)OC1(C)C", "note": "[Compound D-8]", "pest or weed control at 1000 g/ha": 10}
{"smiles": "CCc1ccc(-c2ccc(Cl)cc2)cc1C1=C(OC(=O)C(C)C)C(C)(C)OC(C)(C)C1=O", "note": "[Compound D-9]", "pest or weed control at 1000 g/ha": 0}
{"test_system": "Setaria faberi (SETFA)", "experiment": "Example B post-emergence herbicidal activity, glasshouse pot test", "format": "in vivo", "conditions": "312 h, rate 1000 g/ha, evaluated after 13 days, read-out: Post-emergence activity SETFA (100=total damage to plant; 0=no damage to plant)", "how_it_was_run": "as §1", "units": {"pest or weed control at 1000 g/ha": "%"}}
{"smiles": "CCc1ccc(-c2ccc(Cl)cc2)cc1C1=C(OC(C)=O)C(C)(C)OC(C)(C)C1=O", "note": "[Compound D-7]", "pest or weed control at 1000 g/ha": 100}
{"smiles": "CCC(=O)OC1=C(c2cc(-c3ccc(Cl)cc3)ccc2CC)C(=O)C(C)(C)OC1(C)C", "note": "[Compound D-8]", "pest or weed control at 1000 g/ha": 100}
{"smiles": "CCc1ccc(-c2ccc(Cl)cc2)cc1C1=C(OC(=O)C(C)C)C(C)(C)OC(C)(C)C1=O", "note": "[Compound D-9]", "pest or weed control at 1000 g/ha": 90}
{"test_system": "Echinochloa crus-galli (ECHCG)", "experiment": "Example B post-emergence herbicidal activity, glasshouse pot test", "format": "in vivo", "conditions": "312 h, rate 1000 g/ha, evaluated after 13 days, read-out: Post-emergence activity ECHCG (100=total damage to plant; 0=no damage to plant)", "how_it_was_run": "as §1", "units": {"pest or weed control at 1000 g/ha": "%"}}
{"smiles": "CCc1ccc(-c2ccc(Cl)cc2)cc1C1=C(OC(C)=O)C(C)(C)OC(C)(C)C1=O", "note": "[Compound D-7]", "pest or weed control at 1000 g/ha": 100}
{"smiles": "CCC(=O)OC1=C(c2cc(-c3ccc(Cl)cc3)ccc2CC)C(=O)C(C)(C)OC1(C)C", "note": "[Compound D-8]", "pest or weed control at 1000 g/ha": 100}
{"smiles": "CCc1ccc(-c2ccc(Cl)cc2)cc1C1=C(OC(=O)C(C)C)C(C)(C)OC(C)(C)C1=O", "note": "[Compound D-9]", "pest or weed control at 1000 g/ha": 100}
